Measured values taken from patent publication US20240294545A1 (CSPC Zhongqi Pharmaceutical Technology (Shijiazhuang) Co., …, priority 2020, published 2024).
Marks after values point to notes of the source that are not given here.

Tests used:
[1] = target: ATM (Homo sapiens (Human), UniProt Q13315); assay: Caliper mobility shift assay for ATM; format: biochemical; details: read-out: IC50 of inhibitory activity on ATM kinase
Method: 1.2 Determination of the Inhibitory Activities of Compounds on ATM: Caliper Mobility Shift Assay for ATM
To a 96-well plate, 98 μL of DMSO and 2 μL of the 10 mM stock solution were added and mixed evenly so that the concentration of the solution was 200 μM.
Based on the inhibitory rates of the compound at different concentrations, IC50 was calculated according to the formula: Y=Bottom+(Top−Bottom)/(1+(IC50/X)^HillSlope).

[2] = tested on: intracranial murine glioma GL-261-Luc; assay: Intracranial murine glioma GL-261-Luc model, combined with radiotherapy; format: in vivo, C57BL/6 mice; details: for D17 BLI / D 17 TGI: compound 10 mg/kg intragastric qd × 5 + IR 2 Gy; for D17 BLI: day 17; for D 17 TGI: day 17, from bioluminescence
Method: 8 Efficacy Test of the Compounds of the Present Disclosure Combined with Radiotherapy in the Intracranial Murine Glioma GL-261-Luc Model
8.1 Experimental Animals: C57BL/6 Mice, SPF, Female, 19 to 22 g.
GL-261-Luc tumor cells, DMEM medium:fetal bovine serum=90%:10%, accompanied by adding […] L-Glu, 37° C., 5% CO2.
Female C57BL/6 mice were anesthetized with Shutai 50 (60 mg/mL) and thiazine (1.5 mg/mL). Buprenorphine (0.1 mg/kg) was injected subcutaneously 30 min before operation and 6 h after operation to relieve pain. The operation area was disinfected with 70% ethanol solution. A sagittal incision was made on the parietal-occipital bone of anesthetized mice with a sterile scalpel, after cleaning the exposed skull surface with 3% hydrogen peroxide solution, tumor cells were injected. After injection, the skull was cleaned with 3% hydrogen peroxide solution, dried with a sterile dry cotton swab, and the incision was sutured. The state of mice was examined continuously to ensure that mice fully recovered from anesthesia.
The inoculated mice were weighed and intraperitoneally injected with […] (150 mg/kg). After 10 min injection, the animals were anesthetized with a mixture of oxygen and isoflurane. When the animal was completely anesthetized, it was moved into the imaging room for bioluminescence detection. The bioluminescence signal of the whole animal was measured and recorded for the image.
Bioluminescence detection was performed on the second day after operation, and the tumor-bearing mice were randomly divided into groups according to the intensity of bioluminescence. The specific groups were as follows. The administration route was intragastric administration and then JR 1 h after administration.
After grouping, bioluminescence detection was performed 1 to 2 times a week, according to the bioluminescence data, tumor growth inhibitory rate was calculated as follows: TGI (%)=[1−(Ti−T0)/(Vi−V0)]×100, wherein Ti represents the mean bioluminescence data of a given treatment group on a certain day; T0 represents the mean bioluminescence data of this treatment group at the beginning of administration; Vi represents the mean bioluminescence data of the vehicle control group on a certain day (the same day as that in Ti); V0 represents the mean bioluminescence data of the vehicle control group at the beginning of administration.

[3] = tested on: subcutaneous xenograft tumor of human glioblastoma LN-18; assay: LN-18 subcutaneous xenograft, combined with radiotherapy; format: in vivo, NOG mice; details: compound 10 mg/kg intragastric qd × 5 + IR 1 Gy, day 17
Procedure, shortened: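 Female NOG mice (18–22 g) bearing subcutaneous LN-18 tumours (1.5*10^7 cells, right costal region) were grouped at 100–150 mm^3; radiotherapy followed compound dosing by 1 h. Caliper volumes twice weekly (0.5×long×short^2); TGI % derived from treated vs control mean volume changes from day 0.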

[4] = tested on: Human glioblastoma cell line LN-18; assay: LN18 cell proliferation combined with radiotherapy (CTG assay); format: cell-based; details: Homo sapiens, LN-18, light or radiation study; LN18 cells, 1 Gy irradiation 1 h after compound, 6 days, CTG;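 further: readout is CTG luminescence proliferation not KAP1 phosphorylation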
Method: 5 Test of the Inhibitory Activities of the Compounds of the Present Disclosure Combined with Radiotherapy on LN18 Cell Proliferation
• Cell: Human glioblastoma cell line LN-18
5.2 Experimental Procedures
• (1) Cell inoculation • 1) The cell culture fluid was preheated at 37° C. • 2) A complete culture medium of LN18 cells was prepared, at a ratio of DMEM medium:FBS=95:5 (V/V). • 3) Cells were digested with trypsin, collected to serve as a cell suspension, and counted, the cell suspension was then added into a 96-well plate at 1500 cells/well and 100 μL of cell fluid/well, and three parallel wells were set. • 4) After inoculated in the plate, the cells were cultured overnight under the condition of 37° C. and 5% CO2. • (2) Compound addition and incubation • 1) AZD1390 and tested compounds, respectively, were sequentially diluted 5 times with DMSO, starting from the concentration of 10 mM and yielding the concentrations of 10, 2, 0.4, 0.08, 0.016, 0.0032, 0.00064, 0.000128, and 0.0000256 mM in turn. The compound solutions at the above concentrations were diluted 5000 times with the complete culture medium. The final 2× concentrations were in order 2000, 400, 80, 16, 3.2, 0.64, 0.128, 0.0256, and 0.00512 nM. The vehicle control was 0.02% DMSO culture fluid. • 2) A complete culture medium containing 100 μL of the compound solution was added to each well, and the final concentrations of the compounds in the wells were in order 1000, 200, 40, 8, 1.6, 0.32, 0.064, 0.0128, and 0.00256 nM. The 0.01% DMSO culture fluid was contained in the vehicle control well. After incubated with compound for 1 h, the cells were irradiated at a dose of 1 Gy. • 3) After irradiation, the plate was put into an incubator and incubated under the condition of 37° C. and 5% CO2 for 6 days. Then detection was performed by adopting CTG assay (100 μL of liquid from each well was sucked out and discarded, and 50 μL of CTG reagent was added to each well, and incubated at room temperature for 30 min, and the luminescence intensity was detected). • (3) Data analysis • 1) The Luminescence signal (RLU) of each well was detected. • 2) Proliferation inhibitory activity was calculated according to the formula: % inhibitory activity=RLUtreatment/RLUAvg(Vehicle)*100. 5.3 the Inhibitory Activities of Compounds of the Present Disclosure Combined with Radiotherapy on LN18 Cell Proliferation

Chain of ATM (Q13315 whole entry): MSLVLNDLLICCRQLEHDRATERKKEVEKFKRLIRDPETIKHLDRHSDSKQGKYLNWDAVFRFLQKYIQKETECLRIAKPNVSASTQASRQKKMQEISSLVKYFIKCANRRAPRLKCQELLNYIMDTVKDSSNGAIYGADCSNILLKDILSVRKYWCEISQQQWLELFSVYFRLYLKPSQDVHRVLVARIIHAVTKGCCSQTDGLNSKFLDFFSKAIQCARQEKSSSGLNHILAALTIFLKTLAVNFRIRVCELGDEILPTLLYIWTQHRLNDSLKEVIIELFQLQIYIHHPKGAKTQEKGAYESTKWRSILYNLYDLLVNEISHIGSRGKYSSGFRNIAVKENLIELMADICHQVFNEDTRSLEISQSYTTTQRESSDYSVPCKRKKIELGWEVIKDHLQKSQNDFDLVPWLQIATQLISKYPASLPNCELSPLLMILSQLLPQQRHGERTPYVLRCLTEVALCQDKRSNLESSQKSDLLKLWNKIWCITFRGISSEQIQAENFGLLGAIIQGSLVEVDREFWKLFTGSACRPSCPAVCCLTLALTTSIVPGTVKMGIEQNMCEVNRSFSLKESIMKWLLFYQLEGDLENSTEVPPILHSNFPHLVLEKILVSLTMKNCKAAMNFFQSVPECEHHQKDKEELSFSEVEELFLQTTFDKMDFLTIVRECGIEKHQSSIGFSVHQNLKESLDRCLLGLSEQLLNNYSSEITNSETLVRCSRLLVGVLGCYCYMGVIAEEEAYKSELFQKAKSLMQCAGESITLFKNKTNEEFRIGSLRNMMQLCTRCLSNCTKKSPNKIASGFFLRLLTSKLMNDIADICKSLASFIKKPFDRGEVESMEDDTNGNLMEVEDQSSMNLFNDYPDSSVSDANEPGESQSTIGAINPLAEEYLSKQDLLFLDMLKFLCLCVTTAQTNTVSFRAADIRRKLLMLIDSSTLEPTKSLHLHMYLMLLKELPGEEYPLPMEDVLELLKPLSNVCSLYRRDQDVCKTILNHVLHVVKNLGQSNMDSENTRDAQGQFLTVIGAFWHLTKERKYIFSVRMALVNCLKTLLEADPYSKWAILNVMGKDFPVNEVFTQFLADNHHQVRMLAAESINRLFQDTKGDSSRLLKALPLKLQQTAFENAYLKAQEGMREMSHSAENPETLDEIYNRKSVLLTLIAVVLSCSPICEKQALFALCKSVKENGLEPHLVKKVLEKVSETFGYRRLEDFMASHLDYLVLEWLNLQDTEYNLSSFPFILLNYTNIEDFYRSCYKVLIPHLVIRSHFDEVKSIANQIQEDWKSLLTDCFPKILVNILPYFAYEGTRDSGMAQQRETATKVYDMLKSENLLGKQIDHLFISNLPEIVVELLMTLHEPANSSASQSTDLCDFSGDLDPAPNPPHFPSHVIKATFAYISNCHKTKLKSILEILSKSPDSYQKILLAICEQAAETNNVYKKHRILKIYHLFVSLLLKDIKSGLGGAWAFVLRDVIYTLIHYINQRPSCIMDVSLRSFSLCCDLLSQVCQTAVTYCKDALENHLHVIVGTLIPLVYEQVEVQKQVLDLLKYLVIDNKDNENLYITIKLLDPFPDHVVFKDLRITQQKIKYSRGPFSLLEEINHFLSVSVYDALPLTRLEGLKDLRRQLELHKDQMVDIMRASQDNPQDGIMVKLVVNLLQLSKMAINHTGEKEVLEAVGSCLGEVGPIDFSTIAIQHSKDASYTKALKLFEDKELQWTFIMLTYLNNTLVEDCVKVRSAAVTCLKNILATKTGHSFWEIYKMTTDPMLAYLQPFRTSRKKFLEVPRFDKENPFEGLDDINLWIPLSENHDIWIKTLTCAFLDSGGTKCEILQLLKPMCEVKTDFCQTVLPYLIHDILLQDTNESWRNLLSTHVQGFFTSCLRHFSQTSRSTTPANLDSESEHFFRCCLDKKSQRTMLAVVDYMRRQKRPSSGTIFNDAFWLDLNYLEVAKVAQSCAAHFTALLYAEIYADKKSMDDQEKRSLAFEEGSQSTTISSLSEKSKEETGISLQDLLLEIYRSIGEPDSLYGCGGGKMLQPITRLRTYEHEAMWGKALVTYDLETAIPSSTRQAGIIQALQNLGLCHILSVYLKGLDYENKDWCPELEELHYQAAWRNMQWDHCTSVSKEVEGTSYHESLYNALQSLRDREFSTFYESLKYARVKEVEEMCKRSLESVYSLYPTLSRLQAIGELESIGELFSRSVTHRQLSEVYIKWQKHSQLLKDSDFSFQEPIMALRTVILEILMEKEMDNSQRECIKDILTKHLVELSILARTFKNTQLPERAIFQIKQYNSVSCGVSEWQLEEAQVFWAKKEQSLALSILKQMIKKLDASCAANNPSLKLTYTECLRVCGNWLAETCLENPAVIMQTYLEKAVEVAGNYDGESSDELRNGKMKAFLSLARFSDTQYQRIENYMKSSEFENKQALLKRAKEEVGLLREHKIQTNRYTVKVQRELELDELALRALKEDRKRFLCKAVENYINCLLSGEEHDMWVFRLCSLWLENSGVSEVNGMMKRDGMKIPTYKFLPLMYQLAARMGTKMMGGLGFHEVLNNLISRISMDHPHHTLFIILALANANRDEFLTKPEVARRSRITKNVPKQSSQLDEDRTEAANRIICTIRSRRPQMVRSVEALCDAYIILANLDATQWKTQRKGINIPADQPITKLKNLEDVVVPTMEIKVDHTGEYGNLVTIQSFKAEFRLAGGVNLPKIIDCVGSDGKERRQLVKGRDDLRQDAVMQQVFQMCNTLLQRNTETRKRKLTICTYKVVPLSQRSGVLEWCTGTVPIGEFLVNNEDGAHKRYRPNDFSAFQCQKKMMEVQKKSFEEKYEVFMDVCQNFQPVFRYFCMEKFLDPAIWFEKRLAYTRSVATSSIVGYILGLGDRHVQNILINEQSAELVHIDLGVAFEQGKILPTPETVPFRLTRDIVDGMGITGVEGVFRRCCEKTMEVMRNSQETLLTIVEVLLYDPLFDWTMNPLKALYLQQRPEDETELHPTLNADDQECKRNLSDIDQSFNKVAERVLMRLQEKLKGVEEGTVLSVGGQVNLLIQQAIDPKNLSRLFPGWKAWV

Row | IC50 [1] [nM] | IC50 [4] [nM] | Compound | D17 BLI [2] | D 17 TGI [2] [%] | D 17 TGI [3] [%] | D 17 TV (MEAN ± SD) [3] | anti-tumor activity, in words ([2]; combined with radiotherapy, compared with AZD1390)
1 | 0.2 | 2.79 | CC(C)n1c(=O)n(C)c2cnc3cc(F)c(-c4ccc(OCCCN5CCCCC5)nc4)cc3c21 [AZD1390, reference compound] | 4.90*** LOG10 | 124.08 | 82.8 | 294 ± 52***^# mm^3 | 
2 | 0.65 | 10.1 | Cn1c(=O)n2c3c4c(c(-c5ccc(OCCCN6CCCCC6)nc5)c(F)cc4ncc31)NCC2(C)C [Example A-193, 6-fluoro-2,10,10-trimethyl-7-(6-(3-(piperidin-1-yl)propoxy)pyridin-3-yl)-2,8,9,10-tetrahydro-1H-2,4,8,10a-tetraazanaphtho[2,1,8-cde]azulen-1(2H)-one] | 4.94*** LOG10 | 122.49 | 81.1 | 310 ± 61***^# mm^3 | equivalent to that of AZD1390
